In brackets after ≈: the same amount, converted by molar mass.
What was measured:
[1] = Solid stability experiment (total impurities); format: physicochemical
Description: The physicochemical stability of candidate crystal forms I, II and III of the free base of Example 40 under influencing factors such as high temperature, high humidity and strong light was investigated, so as to provide a basis for the production and storage of the compound.
The related substance change of the free base was calculated by chromatographic peak area normalization method.

[2] = Competitive experiment of different crystal forms of the free base; format: physicochemical; conditions: 40° C.
Description: The stability among crystal forms I, II and III of the free base of Example 40 was investigated, so as to select the stable crystal form.
Multiple portions of about 20 mg of crystal forms I, II and III of the free base of Example 40 were accurately weighed, and mixed in pairs in equal amounts. Methyl tert-butyl ether and n-heptane were added respectively, and the resulting mixture was stirred at 40° C. for 7 days. The mixture was centrifuged at high speed, the supernatant was removed, and the resulting solid precipitate was vacuum dried in an oven at 40° C. and characterized by XRPD.

[3] = Solubility experiment (thermodynamic solubility at 37° C.); format: physicochemical; conditions: for solubility at 24 h: 37 °C, thermodynamic from solid
Description: The solubility of the free base and salt of the compound in water, Fasted State Simulated Gastric Fluid (FaSGF), Fasted State Simulated Intestinal Fluid (FaSSIF) and Fed State Simulated Intestinal Fluid (FeSSIF) was compared, so as to provide a basis for evaluating the druggability of the crystal form and salt.
About 2 to 3 mg of crystal forms I, II and III of the free base of Example 40 were weighed, suspended in 1 mL of Fasted State Simulated Gastric Fluid (FaSSGF), Fasted State Simulated Intestinal Fluid (FaSSIF), Fed State Simulated Intestinal Fluid (FeSSIF) and pure water respectively, and shaked for 24 hours. Thermodynamic solubility of the compound at 37° C. was determined using HPLC by external standard method.

[4] = target: T1, human GABAA receptor α1, β2 and γ2 subunit (HEK293T cell line) (Homo sapiens, UniProt P14867+P47870); test: Positive regulatory effect on GABAA receptor, manual patch clamp; format: cell-based; conditions: whole-cell current, 1 μM GABA
T1 construct: expressed in transfected cells
T1 sequence (P14867 28-456): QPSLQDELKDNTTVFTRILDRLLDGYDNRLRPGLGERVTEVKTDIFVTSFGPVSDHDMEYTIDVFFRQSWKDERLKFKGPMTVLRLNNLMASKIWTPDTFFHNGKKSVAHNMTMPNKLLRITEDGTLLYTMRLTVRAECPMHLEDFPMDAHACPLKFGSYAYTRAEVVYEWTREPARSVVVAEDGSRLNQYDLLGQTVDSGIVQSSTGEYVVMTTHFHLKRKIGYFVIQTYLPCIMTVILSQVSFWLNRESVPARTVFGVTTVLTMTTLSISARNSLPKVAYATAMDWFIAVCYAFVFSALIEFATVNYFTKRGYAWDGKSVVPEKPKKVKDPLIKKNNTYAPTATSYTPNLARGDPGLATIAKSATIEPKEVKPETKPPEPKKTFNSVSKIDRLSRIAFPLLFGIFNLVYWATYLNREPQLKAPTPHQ
T1 sequence (P47870 25-512 limits assumed): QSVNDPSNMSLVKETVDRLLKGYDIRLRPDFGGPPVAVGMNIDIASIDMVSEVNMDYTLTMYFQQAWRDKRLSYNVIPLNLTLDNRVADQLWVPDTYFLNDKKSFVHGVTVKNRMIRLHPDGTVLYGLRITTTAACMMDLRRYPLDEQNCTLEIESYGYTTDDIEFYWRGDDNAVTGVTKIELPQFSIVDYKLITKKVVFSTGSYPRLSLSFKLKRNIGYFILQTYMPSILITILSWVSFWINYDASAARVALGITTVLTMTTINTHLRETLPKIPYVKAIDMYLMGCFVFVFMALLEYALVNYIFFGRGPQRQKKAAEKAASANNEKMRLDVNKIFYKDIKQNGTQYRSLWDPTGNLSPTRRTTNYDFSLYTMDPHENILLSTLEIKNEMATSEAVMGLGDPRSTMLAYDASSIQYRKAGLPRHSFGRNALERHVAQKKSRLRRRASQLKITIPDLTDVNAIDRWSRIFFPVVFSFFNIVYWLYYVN
T1 sequence (P18507 40-475 partner): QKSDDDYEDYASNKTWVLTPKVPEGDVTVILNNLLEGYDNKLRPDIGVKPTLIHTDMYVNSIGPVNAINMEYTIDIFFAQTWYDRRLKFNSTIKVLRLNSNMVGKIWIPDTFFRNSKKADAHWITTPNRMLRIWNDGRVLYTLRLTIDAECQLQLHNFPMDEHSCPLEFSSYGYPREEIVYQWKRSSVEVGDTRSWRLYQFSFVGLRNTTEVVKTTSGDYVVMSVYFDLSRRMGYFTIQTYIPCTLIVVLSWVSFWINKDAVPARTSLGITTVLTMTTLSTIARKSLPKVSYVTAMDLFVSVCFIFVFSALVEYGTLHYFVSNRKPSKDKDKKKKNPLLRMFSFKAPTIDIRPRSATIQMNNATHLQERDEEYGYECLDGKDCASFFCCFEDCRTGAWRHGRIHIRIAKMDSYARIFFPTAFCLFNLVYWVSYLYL
Description: The objective of this test example is to determine the positive regulatory effect of the compound on GABAA receptor by the electrophysiological manual patch clamp method.
Manual patch clamp system HEKA EPC10 USB signal amplifier and digital conversion system (purchased from HEKA Electronics, Germany), centrifuge (Eppendorf, etc.), carbon dioxide incubator (purchased from Thermo, etc.), biological safety cabinet (Thermo, etc.), pipette (purchased from Eppendorf, etc.).
The cells were grown in a culture dish with DMEM medium (purchased from Invitrogen), and cultured in an incubator at 37° C. and 5% CO2. Before the electrophysiological experiment, the cells were transferred to a round glass slide placed in the culture dish, and grown in the same culture medium and under the same culture condition as above. The density of cells on each round glass slide should meet the requirement that most cells were independent and individual.
Each test compound was diluted in gradient with DMSO to obtain a stock solution, which was then diluted with extracellular fluid by 1,000-fold to obtain the final test concentration. The final concentration of DMSO in the compound solution with each concentration was 0.1%. The experiment used the manual patch clamp system HEKA EPC10 USB signal amplifier and digital conversion system for whole cell current recording. The round glass slide with HEK293T GABAA cells grown on the surface was taken out of the culture dish, and placed in the electrophysiological recording tank under the inverted microscope. The recording tank was continuously perfused with extracellular fluid. During the experiment, the whole-cell current recording technology was used to record the chloride current of the GABAA channel. 1 μM GABA was used to activate the chloride current of the GABAA channel of each cell as an initial control. 1 μM GABA acted on the cell through the drug perfusion system to induce the chloride current of the GABAA channel, the action time was about 3 to 5 seconds, and the current value was used as the initial control value. The test concentration of compound was perfused and incubated for 2 to 5 minutes. […] GABA solution (mixed with the test concentration of compound) was given to the cells to observe the enhancement effect of the test compound on the current induced by 1 μM GABA. When the cell state was stable, the test compound acted on the same cell from low to high concentration to record the enhancement effect of the induced current.
The experimental data was analyzed by HEKA Patchmaster, Microsoft Excel and the data analysis software provided by Graphpad Prism.

| Structure (SMILES) | Total impurities (%) ([1]; 50° C./75% RH Open, 5 d) | Total impurities (%) ([1]; 50° C./75% RH Open, 10 d) | Total impurities (%) ([1]; 60° C. Sealed, 5 d) | Total impurities (%) ([1]; 60° C. Sealed, 10 d) | Total impurities (%) ([1]; Initial sample, 0 d) | Total impurities (%) ([1]; Light 5k lux Sealed, 10 d) | Total impurities (%) ([1]; Light 5k lux Sealed, column printed 10 d) | Total impurities (%) ([1]; RT/90% RH Open, 5 d) | Total impurities (%) ([1]; RT/90% RH Open, column printed 5 d) | change of impurities (in words) ([1]; high temperature, high humidity and light for 10 days) | solubility in n-heptane (in words) [2] | solubility at 24 h ([3]; FaSSGF (Fasted State Simulated Gastric Fluid), fassgf or other biorelevant, FaSSGF) [µg/mL] | solubility at 24 h ([3]; FaSSIF (Fasted State Simulated Intestinal Fluid), fassif) [µg/mL] | solubility at 24 h ([3]; FeSSIF (Fed State Simulated Intestinal Fluid), fessif) [µg/mL] | solubility compared among the three crystal forms (in words) ([3]; four media) | solubility at 24 h ([3]; pure water, water) [µg/mL] | EC50 [4] [nM] |
| --- | --- | --- | --- | --- | --- | --- | --- | --- | --- | --- | --- | --- | --- | --- | --- | --- | --- |
| C[C@@H]1C[C@H](C(=O)Cn2ccc(C#N)n2)[C@@]2(C)CC[C@H]3[C@@H](CC[C@@H]4C[C@](C)(O)CC[C@@H]43)[C@H]12 [Crystal form I, 1-(2-((3R,5R,8R,9R,10S,13S,14S,15R,17S)-3-Hydroxy-3,13,15-trimethylhexadecahydro-1H-cyclopenta[a]phenanthren-17-yl)-2-oxoethyl)-1H-pyrazole-3-carbonitrile] | 0.56 | 0.59 | 0.55 | 0.56 | 0.59 | 0.56 | 0.57 | 0.56 | 0.56 | the impurities did not increase | almost insoluble | < 1 | 3.26 (≈ 7.7 µM) | 18.2 (≈ 43 µM) | the lowest | < 1 | – |
| C[C@@H]1C[C@H](C(=O)Cn2ccc(C#N)n2)[C@@]2(C)CC[C@H]3[C@@H](CC[C@@H]4C[C@](C)(O)CC[C@@H]43)[C@H]12 [Example 40, 1-(2-((3R,5R,8R,9R,10S,13S,14S,15R,17S)-3-Hydroxy-3,13,15-trimethylhexadecahydro-1H-cyclopenta[a]phenanthren-17-yl)-2-oxoethyl)-1H-pyrazole-3-carbonitrile] | – | – | – | – | – | – | – | – | – | – | – | – | – | – | – | – | 57 |
